Assays:
Sprague-Dawley rats [1] = experiment: Neuropathic pain testing: L5/L6 spinal nerve ligation, tactile allodynia with von Frey hairs; format: in vivo; settings: intraperitoneal injection, propylene glycol vehicle, rat
Source text: Production of a unilateral hind limb neuropathy in male Sprague-Dawley rats was achieved using the technique of L5 and L6 spinal nerve ligation, according to the method of Kim and Chung (1992). Animals were given one week to recover from surgery prior to testing for the development of […] pain.
The testing procedure involved the determination of tactile allodynia using von Frey hairs, which were applied sequentially to the plantar surface of the rat paw starting with 2 g of force and proceeding upwards to a maximum of 15.1 g of force or downwards to a minimum of 0.4 g force. The 15.1 g force was used to define the maximum possible effect (MPE) for this test of neuropathic pain. Once paw withdrawal occurred, the 50% withdrawal threshold was determined using the “up-down” method as published by Dixon (1980). Both hind paws were tested. Response to therapy as measured by tactile allodynia threshold was calculated using the percentage maximum possible effect (% MPE) according to the following equation: % MPE=100×([Measured value]−[Pre-treatment value])/([MPE]−[Pre-treatment value]).
Drugs were dissolved in a propylene glycol vehicle and administered via intraperitoneal injection.

Sprague-Dawley rats [2] = experiment: Antinociceptive testing (tail flick / plantar test) after intrathecal or intravenous administration; format: in vivo; settings: rat
Description: The following sequence protocol was used for the acute intrathecal administration to Sprague-Dawley rats. Each rat only underwent one cycle of the sequence protocol:
Intrathecal catheter placement was carried out as first described by Yaksh and Rudy (1976) The general thrust of the catheter placement involves the PE-10 catheter inserted into the subarachnoid space via the antlanto-occipital membrane (as the entry point) and threaded down to the lumber expansion of the spinal cord (spinal cord level L5/L6). The catheter tip is then exteriorised over the forehead. All animals are, assessed for normal motor function and behaviour post-surgery. […]
Drugs were administered in a 0.1 ml volume followed by 0.1 ml saline (0.9% sodium chloride solution; Baxter, Toongabbie, N.S.W., Australia) flush. Tail flick nociception was measured at 15, 30, and in the case of 0.1 mg/kg CP 55,940, 45 min after intravenous administration.
The antinociception tests were all conducted using the Plantar Test Instrument (Ugo Basile, Varese, Italy) which comprises a movable infra-red (IR) heat source, a glass pane onto which the 3-compartment rat enclosure is placed and a controller. […] The withdrawal latency is measured by the time difference between the activation of the IR heat source and physical withdrawal of the paw or tail from the stimulus. […]

Question: How did the “antinociceptive effect in model of neuropathic pain” value (Sprague-Dawley rats [1]) turn out when `c1ccc(Cc2noc(-c3cn(CCN4CCCC4)c4ccccc34)n2)cc1` [Compound 1, 3-(3-Benzyl-[1,2,4]-oxadiazol-5-yl)-1-[2-(pyrrolidin-1-yl)ethyl]-1H-indole] was run?
Answer: significant antinociceptive effect

Question: What about the antinociceptive effect (Sprague-Dawley rats [2]; i.t. route) of the same molecule?
Answer: provided an antinociceptive effect

Question: And the antinociceptive effect (Sprague-Dawley rats [2]; i.v. route)?
Answer: provided an antinociceptive effect

From patent US6930118B2, “3-Oxadiazol-5-yl-1-aminoalkyl-1h-indole derivatives” (Amrad Operations Pty. Ltd., priority 2001, dated 2005)
